Results published in patent US20100068302A1, “METHODS AND COMPOSITIONS FOR THE TREATMENT OF CANCER” (TRASLATIONAL CANCER DRUGS PHARMA, S.L., priority 2008, published 2010).
Values joined by “and” are separate entries in the source; they are usually repeats but may differ in a detail not shown here. Equal entries are not always repeated. Where two headings read alike, the source gives them in different places.

Columns and labels:
[1] = tested on: primary cultures of resected NSCLC tumours; assay: Primary cultures of NSCLC tumours treated 10 days, Cristal Violet quantification; format: cell-based, human; conditions: for RESISTANT (% of samples) / RESISTANT (number of tumour samples) / SENSITIVES (% of samples) / SENSITIVES (number of tumour samples): primary NSCLC tumour cultures, 0-20 μM, 10 days
Text: Specimens of lung cancer tissue from 84 randomly selected patients who underwent surgical resection of NSCLC between 2001 and 2004 and that were followed up by The Medical Oncology division at La Paz Hospital in Madrid were used for this analysis. No adjuvant therapy was administrated to these patients. The study was approved by the institutional review board of the hospitals, and written informed consent was obtained from all patients.
Resected tissues from NSCLC patients were dissociated (Cell dissociation sieve-tissued grinder Kit CD1, SIGMA), and the obtained cells were seeded in 24 well plates (BD, Falcon, Bioscience, San Jose, Calif., USA). […] The final persistent population in each well was quantified by the method of Cristal Violet as previously described (Rodríguez-González, A. et al., Oncogene, 22:8803-8812). […]

[2] = tested on: Human primary bronchial epithelial cells, NHBE (BEC); assay: Cell proliferation assay (MTT), Primary BEC; format: cell-based
Procedure: (§1) All cell lines used in this study were maintained under standard conditions of temperature (37° C.), humidity (95%), and carbon dioxide (5%). Human primary bronchial epithelial cells, NHBE (BEC) (Cambrex, CC-2541) were grown in BEGM (Bronchial Epithelial cell growth media) BulletKit (Cambrex, CC-3170). Human primary mammary epithelial cells, HMEC (Clonetics, CC-2551) were grown in MEBM medium supplemented with a bullet kit (Clonetics, CC-3150). Epithelial non-small lung cancer cells H460 and H1299, and small cell lung cancer cell lines H510 and H82 were maintained in RPMI supplemented with 10% Fetal Bovine Serum (FBS) (Life Technologies, Grand Island, N.Y.).
(§2) Cells were seeded on 96-well plates (B D, Falcon, Bioscience, San Jose, Calif., USA) at a density of 6000 cells/well, and incubated for 24 h under standard conditions. […] Absorbance is read at 595 nm in a VersaMax Microplate Reader (Molecular Devices, Sunnyvale, Calif., USA). For sensitization with acid ceramidase inhibitor, cells were pre-treated 4 hours with the correspondent IC50 for NOE before treatment with ChoK inhibitors. NOE (N-Oleoyl ethanolamine) was obtained from Calbiochem (La Jolla, Calif., USA).

[3] = tested on: Human primary mammary epithelial cells, HMEC; assay: Cell proliferation assay (MTT), Primary HMEC; format: cell-based
Procedure: as §1, §2

[4] = tested on: H1299 non-small lung cancer cells; assay: Cell proliferation assay (MTT), H1299; format: cell-based; conditions: Homo sapiens
Procedure: as §1, §2

[5] = tested on: H460 non-small lung cancer cells; assay: Cell proliferation assay (MTT), H460; format: cell-based, human
[6] = tested on: H510 small cell lung cancer cells; assay: Cell proliferation assay (MTT), H510; format: cell-based; conditions: Homo sapiens
Procedure: as §1, §2

[7] = tested on: H82 small cell lung cancer cells; assay: Cell proliferation assay (MTT), H82; format: cell-based; conditions: Homo sapiens
Procedure: as §1, §2

[8] = tested on: H460stock cells; assay: Cell proliferation assay (MTT), H460stock control line; format: cell-based, human
Procedure: (§3) Cell lines resistant to MN58b and RSM-932A (identified as MN58R and RSM-932A-R, respectively) were generated by prolonged continuous exposure to increasing concentrations of each drug. A parallel control (H460 stock) of the cell line in the absence of the compounds was kept in culture for the same time.
as §2, with “conditions. Then, cells were treated with different concentrations of the ChoK inhibitors (quadruplicates of each concentration) and maintained for 72 hours.” for “conditions.”
(§4) To further study the mechanism underlying resistance to ChoK inhibition, as well as the implication of acid ceramidase in this effect, we used the human NSCLC-derived H460 cell line for a set of in vitro experiments. […]

[9] = tested on: H460 MN58R cells; assay: Cell proliferation assay (MTT), H460 line resistant to MN58b; format: cell-based, human
Procedure: as §3
as §2, with “conditions. Then, cells were treated with different concentrations of the ChoK inhibitors (quadruplicates of each concentration) and maintained for 72 hours.” for “conditions.”
as §4

[10] = tested on: H460 RSM-932AR cells; assay: Cell proliferation assay (MTT), H460 line resistant to RSM-932A; format: cell-based, human
Procedure: as §3
as §2, with “conditions. Then, cells were treated with different concentrations of the ChoK inhibitors (quadruplicates of each concentration) and maintained for 72 hours.” for “conditions.”
as §4

[11] = tested on: H460 cells; assay: Combination index assay (Chou Talalay) cisplatin plus ChoK inhibitors; format: cell-based, human; conditions: cisplatin 3 h followed by 40 h of ChoK inhibitor, CI<1 synergistic, CIs<0.5 strong synergistic
Procedure: All experiments were performed in quadruplicate.

[12] = tested on: DLD-1 colon cancer derived cells; assay: MTT cytotoxicity, ChoKI and TRAIL, DLD-1; conditions: DLD-1, drug alone
Text: (§5) To that end, five colon cancer derived cell lines were used: DLD-1, HT-29, HCT-116, SW620 and SW480.

[13] = tested on: HT-29 colon cancer derived cells; assay: MTT cytotoxicity, ChoKI and TRAIL, HT-29; conditions: HT-29, drug alone
Text: as §5

[14] = tested on: SW620 colon cancer derived cells; assay: MTT cytotoxicity, ChoKI and TRAIL, SW620; conditions: SW620 (FIG. 7B)
Text: as §5

[15] = tested on: DLD-1, HT-29, HCT-116, SW620 and SW480; assay: MTT sensitivity in five colon cancer derived cell lines; format: cell-based; conditions: five colon cancer derived cell lines (FIG. 7)
Text: as §5

[16] = of 84 patients, nearly 100% of cells alive at 20 μM at day 10
[17] = Homo sapiens, NCI-H460, 72 h, H460, single agent (Table 7), read-out: IC50 72 h
[18] = Homo sapiens, NCI-H460, read-out: IC50

Nc1ccn([C@@H]2O[C@H](CO)[C@@H](O)C2(F)F)c(=O)n1 [Gemcitabine]
RESISTANT (% of samples) [1]: 65.4%
RESISTANT (number of tumour samples) [1]: 34
SENSITIVES (% of samples) [1]: 34.6%
SENSITIVES (number of tumour samples) [1]: 18

CN(C)c1cc[n+](Cc2ccc(CCCCc3ccc(C[n+]4ccc(N(C)C)cc4)cc3)cc2)cc1 [MN58b, 1,4-(4-4′-Bis-((4-(dimethylamine)pyridinium-1-yl)methyl)diphenyl)butane dibromide]
samples highly sensitive (%) ([1]; among the 45 sensitive tumours): 33.3%
samples partially sensitive (%) ([1]; among the 45 sensitive tumours): 66.7%
samples partially sensitive (number) ([1]; among the 45 sensitive tumours, around 50% of cells alive at end of treatment): 30
samples highly sensitive (number) ([1]; among the 45 sensitive tumours, viability abolished at low concentrations, day 10): 15
tumours sensitive to the antiproliferative effect (%) ([1]; of 84 patients, day 10): 53.6%
tumours sensitive to the antiproliferative effect (number) ([1]; of 84 patients, day 10): 45
samples fully resistant (%) [1, 16]: 46,4%
samples fully resistant (number) [1, 16]: 39
RESISTANT (% of samples) [1]: 44.4%
RESISTANT (number of tumour samples) [1]: 28
SENSITIVES (% of samples) [1]: 55.5% and 55%
SENSITIVES (number of tumour samples) [1]: 35
IC50 ([2]; 48 h, read-out: IC50 48 h): 40.5 ± 6.2 µM
IC50 ([2]; 72 h, read-out: IC50 72 h): 18.3 ± 4.8 µM
IC50 ([2]; 144 h, read-out: IC50 144 h): 4.2 ± 0.8 µM
IC50 ([3]; 48 h, read-out: IC50 48 h): 44.7 ± 4.95 µM
IC50 ([3]; 72 h, read-out: IC50 72 h): 20.9 ± 2.7 µM
IC50 ([3]; 144 h, read-out: IC50 144 h): 3.4 ± 0.13 µM
IC50 ([4]; NCI-H1299, 48 h, read-out: IC50 48 h): 10.3 ± 2.5 µM
IC50 ([4]; NCI-H1299, 72 h, read-out: IC50 72 h): 2.7 ± 0.7 µM
IC50 ([4]; NCI-H1299, 144 h, read-out: IC50 144 h): 0.9 ± 0.1 µM
IC50 ([5]; Homo sapiens, NCI-H460, 48 h, H460, 48 h, read-out: IC50 48 h): 7.03 ± 2.03 µM
IC50 ([5]; Homo sapiens, NCI-H460, 72 h, H460, 72 h (Table 6), read-out: IC50 72 h): 2.6 ± 0.8 µM
IC50 [5, 17]: 0.28 µM
IC50 ([5]; Homo sapiens, NCI-H460, 144 h, H460, 144 h, read-out: IC50 144 h): 1.1 ± 0.1 µM
IC50 ([5]; Homo sapiens, NCI-H460, H460 (Table 8), read-out: IC50): 0.28 µM
IC50 ([6]; NCI-H510, 48 h, read-out: IC50 48 h): 1.1 ± 0.1 µM
IC50 ([6]; NCI-H510, 72 h, read-out: IC50 72 h): 0.4 ± 0.05 µM
IC50 ([6]; NCI-H510, 144 h, read-out: IC50 144 h): 0.1 ± 0.03 µM
IC50 ([7]; H82, 48 h, read-out: IC50 48 h): 1.9 ± 0.2 µM
IC50 ([7]; H82, 72 h, read-out: IC50 72 h): 0.8 ± 0.04 µM
IC50 ([7]; H82, 144 h, read-out: IC50 144 h): 0.27 ± 0.01 µM
IC50 ([8]; Homo sapiens, read-out: IC50): 0.39 µM
IC50 [9, 18]: 19.2 µM
IC50 [10, 18]: 28.8 µM
Combination index (CI) with cisplatin [11]: 0.1

CCCCCCCC/C=C\CCCCCCCC(=O)NCCO [NOE, N-oleoylethanolamine, reference compound]
IC50 [5, 17]: 32.5 µM

CC(=O)O[C@H]1C(=O)[C@@]2(C)[C@H]([C@H](OC(=O)c3ccccc3)[C@]3(O)C[C@H](OC(=O)[C@H](O)[C@@H](NC(=O)c4ccccc4)c4ccccc4)C(C)=C1C3(C)C)[C@]1(OC(C)=O)CO[C@@H]1C[C@@H]2O [Taxol]
RESISTANT (% of samples) [1]: 56.5%
RESISTANT (number of tumour samples) [1]: 35
SENSITIVES (% of samples) [1]: 43.5%
SENSITIVES (number of tumour samples) [1]: 27

CCC1=C[C@@H]2CN(C1)Cc1c([nH]c3ccccc13)[C@@](C(=O)OC)(c1cc3c(cc1OC)N(C)[C@H]1[C@@](O)(C(=O)OC)[C@H](OC(C)=O)[C@]4(CC)C=CCN5CC[C@]31[C@@H]54)C2 [Vinolrelbine, vinorelbine]
RESISTANT (% of samples) [1]: 61.5%
RESISTANT (number of tumour samples) [1]: 24
SENSITIVES (% of samples) [1]: 38.5%
SENSITIVES (number of tumour samples) [1]: 15

[NH2][Pt]([NH2])([Cl])[Cl] [cDDP, cisplatin, reference compound]
RESISTANT (% of samples) [1]: 50%
RESISTANT (number of tumour samples) [1]: 31
SENSITIVES (% of samples) [1]: 50%
SENSITIVES (number of tumour samples) [1]: 31
IC50 ([5]; H460): 5 µg/mL
IC50 [8]: 4.5 µg/mL
IC50 [9]: 2 µg/mL
IC50 [10]: 1.5 µg/mL

TRAIL: extracellular domain of human TRAIL (amino acids 95-281)
cytotoxicity, percentage of cell death [12]: 12%
cytotoxicity [13]: 18%
sensitivity to treatment [14]: nearly resistant
sensitivity across the cell lines [15]: very similar for all cell lines except for SW620
